From US6949522B2, “β-2′- or 3′-halonucleosides” (Pharmasset, Inc., priority 2001, dated 2005)
Where two headings read alike, the source gives them in different places.

How the values were obtained:
HIV-1 LAI (wild type) = assay: HIV-1 RT-assay on supernatant of acutely infected human PBM cells, strain LAI; type: cell-based; details: 5 days, RT activity reduced by 90%
Description: (§1) Human PBM cells (1×10^6 cells/T25 flask) were PHA stimulated for 2 or 3 days, and infected with either a wild type (LAI and xxBRU) or a 3TC-resistant (xxBRU 184V) HIV-1 strain at 100 TCID50, as previously described (27). The culture was kept for 5 days in presence of test compounds at serial 1-log dilutions. Subsequently, human PBM cells were removed from the culture supernatant by centrifugation (10 minutes, 400×g, 4° C.). This clarified supernatant was tested either in the RT-assay, or in the Q-RT-PCR assay.
(§2) Virus particles present in a 1 mL aliquot of culture supernatant were concentrated by high-speed centrifugation (2 hours, 20,000×g, 4° C.). The supernatant was then removed and the virus pellet was dispensed into a 100 μL virus solubilization buffer (VSB: 0.5% Triton X-100; 0.8 M NaCl, 0.5 mM phenylmethylsulfonyl, 20% glycerol, 50 mM Tris.HCl pH 7.8). A 10 μL aliquot of RT-VSB was mixed with 75 μL RT cocktail (60 mM Tris.HCl pH 7.8, 12 mM MgCl2, 6 mM DTT, 6 μg/mL poly (rA)n-oligo (dT)10-12, 1.2 mM dATP, and 80 μCi/mL 3H-TTP) and incubated for 2 hours at 37° C. Subsequently 100 μL of 10% TCA was added, and the total amount of incorporated 3H-TTP was determined.
(§3) HIV-1 present in culture supernatant fluids was quantified by two different methodologies: i) the Q-RT-PCR with read-out in log copies/mL; and ii) the endogenous viral RT assay on cell supernatant with read-out in log counts per minute/mL (CPM/mL). Upon addition of antiviral compounds to the culture media, a dose-related decrease in virus production was observed. Although the two methodologies measured different parameters (viral RNA versus active RT enzyme), results were not markedly different from each other. The HIV-1 Q-RT-PCR results were compared with a previously established cell-based antiviral drug evaluation assay (endogenous HIV-1 RT polymerization activity in cell supematant)(27).

HIV-1 xxBRU (wild type) = assay: HIV-1 RT-assay on supernatant of acutely infected human PBM cells, strain xxBRU; type: cell-based; details: 5 days, RT activity reduced by 90%
Description: as §1, §2, §3

BVDV (strain NADL) = assay: BVDV Q-RT-PCR assay in MDBK cells; type: cell-based, bovine viral diarrhea virus; details: read-out: BVDV assay Q-PCR EC90
Description: Madin-Darby Bovine Kidney (MDBK) cells were maintained in DMEM/F12 supplemented with 10% heat-inactivated horse serum at 37° C. in a humidified, 5% CO2 atmosphere. Cells were seeded in 96-well plates at 5×10^3 cells/wcll and incubated for 1 hour. BVDV (strain NADL) was used to infect the cells in monolayer at MOI 0.02. After 45 minutes of infection, the viral inoculum was removed and the cells were washed twice. Media or media containing test compound was added to these cells, followed by 24 hour incubation. Cell supernatant fluids were collected, clarified by centrifugation (2 minutes, 3,000 g, room temperature) and viral RNA was prepared (QIAamp Viral RNA mini Kit, Qiagen). Viral RNA was detected in real-time RT-PCR.

[1] = test system: mitochondrial cytochrome C oxidase subunit II (COXII) gene; type: cell-based, human; details: HepG2, 10 μM, 7 days; for COXIINrDNA (range) relative to control: COXII DNA normalized to rDNA
From the text: The Q-RT-PCR technology was also used to evaluate potential mitochondrial γ-DNA polymerase inhibition by the compounds of the present invention in relevant human cells. […] Since active nucleoside compounds in the triphosphate form lack a 3′-OH, thereby stopping virus replication by chain termination, there is a concern that these nucleoside analogues are also substrates for the human DNA polymerase γ, resulting in inhibition of mitochondrial DNA replication and subsequently toxic side effects (11, 19). In an attempt to provide direct quantifiable data on mitochondrial DNA levels intracellular, a Q-PCR technology was designed and relative quantification of COXII DNA levels were calculated using the comparative Ct method. […] Also, in agreement with previous observations, no changes in normalized mitochondrial DNA levels were observed after FIAU and D4T treatment (6, 8, 23).
Low passage number HepG2 cells, obtained from American Tissue Culture Collection (ATCC, Manassas, Va.) were seeded at 5,000 cells/well in collagen-coated 96-well plates. Test compounds were added to the media to obtain a final concentration of 10 μM. On culture day 7, cellular nucleic acids were prepared by using commercially available columns (RNeasy 96 kit, Qiagen). […] The mitochondrial cytochrome C oxidase subunit II (COXII) gene and the β-actin or rRNA gene were amplified from 5 μL with a multiplex Q-PCR protocol using the suitable primers and probes for both target and reference (designed using the Primer Express software, Applied Biosystems); • for COXII. • sense primer 5′-[…]-3′ (Sequence 7); • probe 5′-TET-[…]-TAMRA-3′ (Sequence 8); and • antisense probe 5′-[…]-3′ (Sequence 9); • for exon 3 of β-actin (GenBank E01094): • sense primer 5′-[…]-3′ (Sequence 10); • probe 5′-6FAM-[…]-TAMRA-3′ (Sequnece 11); and • antisense probe 5′-[…]-3′ (Sequence 12).
The rRNA gene primers and probes were purchased from Applied Biosystems. Standard curves using 1-log diluted total HepG2 DNA were linear over more than 5 logs. In addition, efficiencies of target (COXII DNA) and reference (β-actin DNA or rRNA) amplification were approximately equal, because the slope of the ΔCt line (Ct β-actin minus Ct mitochondrial) was less than 0.1 (not shown). Since equal amplification efficiencies were obtained for both genes, the comparative cycle threshold (Ct) method was used to investigate potential inhibition of the mitochondrial DNA polymerase γ. The comparative Ct method uses arithmetic formulas in which the amount of target (COXII gene) is normalized to an endogenous reference (β-actin gene or rRNA gene) and is relative to a calibrator (no drug control at day 7). The arithmetic formula for this approach is given by 2-ΔΔCt (User bulletin # 2, Applied Biosystems).
In order to study the consequences of possible inhibitory effects of these compounds on host DNA polymerases, nuclear and rnitochondrial DNA levels were quantified and compared to no-treatment controls. Cells were incubated for 7 days with 10 μM of each compound, followed by total nucleic acid extractions and multiplex Q-PCR of the rRNA gene and the mitochondrial COXII gene. Nucleic acids from cells exposed to the control compounds were also amplified in multiplex for mitDNA and the β-actin gene. The results are presented in Table 4 using the comparative Ct method.

[2] = Human immunodeficiency virus 1, PBMC, 120 h
[3] = Bovine viral diarrhea virus isolates and strains, MDBK cells, 24 hour incubation, viral RNA in supernatant
[4] = MDBK cells, 24 hour incubation, viral RNA in supernatant

Cc1cn([C@H]2C[C@H](N=[N+]=[N-])[C@@H](CO)O2)c(=O)[nH]c1=O [AZT, 3′-azido-3′-deoxythymidine, reference compound]
EC90 (HIV-1 LAI (wild type); [2]): 20 nM | EC90 (HIV-1 xxBRU (wild type); [2]): 10 nM | EC90 (BVDV (strain NADL); [3]): > 200 µM | Average ΔCt ± SD COXII DNA [1]: 0.25 ± 0.13 | Average ΔΔCt ± SD COXII-rDNA [1]: −0.61 ± 0.56 | Average ΔΔCt ± SD COXII-β-actin [1]: 0.16 ± 0.44

Nc1ccn([C@@H]2CS[C@H](CO)O2)c(=O)n1 [Compound 3TC, (−)-β-2′,3′-dideoxy-3′-thiacytidine, reference compound]
EC90 (HIV-1 LAI (wild type); [2]): 130 nM | EC90 (HIV-1 xxBRU (wild type); [2]): 80 nM | EC90 (BVDV (strain NADL); [3]): > 200 µM | COXIINrDNA (range) relative to control ([1]; 2-ΔΔCt): 1.31 (0.92-1.88) | COXIINβ-actin DNA (range) relative to control ([1]; COXII DNA normalized to β-actin DNA, 2-ΔΔCt): 1.02 (0.75-1.37) | Average ΔCt ± SD COXII DNA [1]: 0.08 ± 0.33 | Average ΔΔCt ± SD COXII-rDNA [1]: −0.39 ± 0.50 | Average ΔΔCt ± SD COXII-β-actin [1]: −0.02 ± 0.43

Nc1ccn([C@@H]2C=C(F)[C@H](CO)O2)c(=O)n1 [Compound 10, 1-(2,3-Dideoxy-3-fluoro-β-L-glycero-pent-2-eno-furanosyl)cytosine]
EC90 (HIV-1 LAI (wild type); [2]): 25300 nM | EC90 (HIV-1 xxBRU (wild type); [2]): 35500 nM | EC90 (BVDV (strain NADL); Bovine viral diarrhea virus isolates and strains, MDBK, 24 h): > 200 µM | COXIINrDNA (range) relative to control ([1]; 2-ΔΔCt): 1.16 (0.81-1.64) | Average ΔCt ± SD COXII DNA [1]: −0.29 ± 0.19 | Average ΔΔCt ± SD COXII-rDNA [1]: −0.21 ± 0.51

Nc1ccn([C@@H]2C=C(F)[C@H](CO)O2)c(=O)n1 [Compound 23, 1-(2,3-Didcoxy-3-fluoro-β-L-glycero-pent-2-eno-furanosyl)cytosine]
EC90 (HIV-1 LAI (wild type)): 670 nM | EC90 (HIV-1 xxBRU (wild type)): 140 nM | EC90 (BVDV (strain NADL); [4]): > 200 µM | COXIINrDNA (range) relative to control ([1]; 2-ΔΔCt): 0.78 (0.59-1.04) | Average ΔCt ± SD COXII DNA [1]: −0.16 ± 0.17 | Average ΔΔCt ± SD COXII-rDNA [1]: 0.36 ± 0.41

Nc1ccn([C@@H]2S[C@H](CO)C=C2F)c(=O)n1 [Compound D-17, (−)-1-[(1S,4R)-2,3-dideoxy-2,3-didehydro-2-fluoro4-thio-β-D-ribofuranosyl]-cytosine]
EC90 (HIV-1 LAI (wild type)): 11900 nM | EC90 (HIV-1 xxBRU (wild type)): 5000 nM | EC90 (BVDV (strain NADL); [4]): > 200 µM | COXIINrDNA (range) relative to control ([1]; 2-ΔΔCt): 1.94 (1.31-2.87) | Average ΔCt ± SD COXII DNA [1]: −0.14 ± 0.10 | Average ΔΔCt ± SD COXII-rDNA [1]: −0.96 ± 0.56

Nc1nc(=O)n([C@@H]2S[C@H](CO)C=C2F)cc1F [Compound D-18, (−)-1-[(1S,4R)-2,3-dideoxy-2,3-didehydro-2-fluoro-4-thio-β-D-ribofuranosyl]-5-fluorocytosine]
EC90 (HIV-1 LAI (wild type)): > 100000 nM | EC90 (HIV-1 xxBRU (wild type)): 119000 nM | EC90 (BVDV (strain NADL); [4]): > 200 µM | COXIINrDNA (range) relative to control ([1]; 2-ΔΔCt): 0.96 (0.78-1.17) | Average ΔCt ± SD COXII DNA [1]: −0.39 ± 0.43 | Average ΔΔCt ± SD COXII-rDNA [1]: 0.06 ± 0.29

Nc1ccn([C@H]2S[C@@H](CO)C=C2F)c(=O)n1 [Compound L-17, (+)-1-[(1S,4R)-2,3-dideoxy-2,3-didehydro-2-fluoro-4-thio-β-L-ribofuranosyl]-cytosine]
EC90 (HIV-1 LAI (wild type)): 3300 nM | EC90 (HIV-1 xxBRU (wild type)): 1400 nM | EC90 (BVDV (strain NADL); [4]): > 200 µM | COXIINrDNA (range) relative to control ([1]; 2-ΔΔCt): 1.46 (0.87-2.47) | Average ΔCt ± SD COXII DNA [1]: −0.05 ± 0.16 | Average ΔΔCt ± SD COXII-rDNA [1]: −0.55 ± 0.75

Nc1nc(=O)n([C@H]2S[C@@H](CO)C=C2F)cc1F [Compound L-18, (+)-1-[(1S,4R)-2,3-dideoxy-2,3-didehydro-2-fluoro-4-thio-β-L-ribofuranosyl]-5-fluoro-cytosine]
EC90 (HIV-1 LAI (wild type)): 2600 nM | EC90 (HIV-1 xxBRU (wild type)): 1100 nM | EC90 (BVDV (strain NADL); [4]): > 200 µM | COXIINrDNA (range) relative to control ([1]; 2-ΔΔCt): 1.12 (0.76-1.64) | Average ΔCt ± SD COXII DNA [1]: −0.06 ± 0.24 | Average ΔΔCt ± SD COXII-rDNA [1]: −0.16 ± 0.56
